Numbers after ± are expanded uncertainties.
Assay: xn = mol fraction of the nth substance listed
Conditions: 100 kPa, Liquid; for viscosity: Capillary tube (Ostwald / Ubbelohde) method; for mass density: Vibrating tube method

CCCCCCCCCC(=O)OCC [ethyl decanoate] + CCCCCCCCCCCCCCCC
Conditions	mass density [kg/m3]	viscosity [mPa·s]
298.15 K, x2 = 0	860.05 ± 0.83	2.115 ± 0.045
298.15 K, x2 = 0.1	848.4 ± 0.83	2.169 ± 0.046
298.15 K, x2 = 0.2	837.44 ± 0.83	2.23 ± 0.047
298.15 K, x2 = 0.3	827.17 ± 0.83	2.298 ± 0.049
298.15 K, x2 = 0.4	817.5 ± 0.83	2.374 ± 0.05
298.15 K, x2 = 0.5	808.41 ± 0.83	2.46 ± 0.052
298.15 K, x2 = 0.6	799.81 ± 0.83	2.556 ± 0.054
298.15 K, x2 = 0.7	791.69 ± 0.83	2.664 ± 0.057
298.15 K, x2 = 0.8	783.98 ± 0.83	2.785 ± 0.059
298.15 K, x2 = 0.9	776.78 ± 0.83	2.923 ± 0.062
303.15 K, x2 = 0	855.99 ± 0.83	1.919 ± 0.041
303.15 K, x2 = 0.1	844.41 ± 0.83	1.966 ± 0.042
303.15 K, x2 = 0.2	833.53 ± 0.83	2.019 ± 0.043
303.15 K, x2 = 0.3	823.32 ± 0.83	2.079 ± 0.044
303.15 K, x2 = 0.4	813.71 ± 0.83	2.144 ± 0.046
303.15 K, x2 = 0.5	804.69 ± 0.83	2.219 ± 0.047
303.15 K, x2 = 0.6	796.15 ± 0.83	2.303 ± 0.049
303.15 K, x2 = 0.7	788.08 ± 0.83	2.396 ± 0.051
303.15 K, x2 = 0.8	780.42 ± 0.83	2.501 ± 0.053
303.15 K, x2 = 0.9	773.27 ± 0.83	2.618 ± 0.056
308.15 K, x2 = 0	851.92 ± 0.83	1.75 ± 0.037
308.15 K, x2 = 0.1	840.42 ± 0.83	1.79 ± 0.038
308.15 K, x2 = 0.2	829.61 ± 0.83	1.837 ± 0.039
308.15 K, x2 = 0.3	819.48 ± 0.83	1.89 ± 0.04
308.15 K, x2 = 0.4	809.93 ± 0.83	1.948 ± 0.041
308.15 K, x2 = 0.5	800.96 ± 0.83	2.013 ± 0.043
308.15 K, x2 = 0.6	792.49 ± 0.83	2.086 ± 0.044
308.15 K, x2 = 0.7	784.47 ± 0.83	2.167 ± 0.046
308.15 K, x2 = 0.8	776.87 ± 0.83	2.257 ± 0.048
308.15 K, x2 = 0.9	769.76 ± 0.83	2.358 ± 0.05
313.15 K, x2 = 0	847.85 ± 0.83	1.603 ± 0.034
313.15 K, x2 = 0.1	836.43 ± 0.83	1.639 ± 0.035
313.15 K, x2 = 0.2	825.69 ± 0.83	1.68 ± 0.036
313.15 K, x2 = 0.3	815.62 ± 0.83	1.726 ± 0.037
313.15 K, x2 = 0.4	806.15 ± 0.83	1.777 ± 0.038
313.15 K, x2 = 0.5	797.24 ± 0.83	1.835 ± 0.039
313.15 K, x2 = 0.6	788.82 ± 0.83	1.899 ± 0.04
313.15 K, x2 = 0.7	780.86 ± 0.83	1.97 ± 0.042
313.15 K, x2 = 0.8	773.31 ± 0.83	2.049 ± 0.044
313.15 K, x2 = 0.9	766.26 ± 0.83	2.137 ± 0.045
318.15 K, x2 = 0	843.77 ± 0.83	1.474 ± 0.031
318.15 K, x2 = 0.1	832.43 ± 0.83	1.506 ± 0.032
318.15 K, x2 = 0.2	821.76 ± 0.83	1.544 ± 0.033
318.15 K, x2 = 0.3	811.77 ± 0.83	1.585 ± 0.034
318.15 K, x2 = 0.4	802.35 ± 0.83	1.63 ± 0.035
318.15 K, x2 = 0.5	793.51 ± 0.83	1.68 ± 0.036
318.15 K, x2 = 0.6	785.15 ± 0.83	1.737 ± 0.037
318.15 K, x2 = 0.7	777.25 ± 0.83	1.799 ± 0.038
318.15 K, x2 = 0.8	769.76 ± 0.83	1.869 ± 0.04
318.15 K, x2 = 0.9	762.74 ± 0.83	1.947 ± 0.041
323.15 K, x2 = 0	839.69 ± 0.83	1.362 ± 0.029
323.15 K, x2 = 0.1	828.42 ± 0.83	1.39 ± 0.03
323.15 K, x2 = 0.2	817.83 ± 0.83	1.423 ± 0.03
323.15 K, x2 = 0.3	807.9 ± 0.83	1.46 ± 0.031
323.15 K, x2 = 0.4	798.56 ± 0.83	1.501 ± 0.032
323.15 K, x2 = 0.5	789.78 ± 0.83	1.546 ± 0.033
323.15 K, x2 = 0.6	781.48 ± 0.83	1.595 ± 0.034
323.15 K, x2 = 0.7	773.64 ± 0.83	1.651 ± 0.035
323.15 K, x2 = 0.8	766.2 ± 0.83	1.712 ± 0.036
323.15 K, x2 = 0.9	759.24 ± 0.83	1.779 ± 0.038

CCCCCCCCCCCC(=O)OCC [ethyl dodecanoate] + CCCCCCCCCCCCCCCC
Conditions	mass density [kg/m3]	viscosity [mPa·s]
298.15 K, x2 = 0	858.19 ± 0.83	3.015 ± 0.064
298.15 K, x2 = 0.1	848.2 ± 0.83	2.977 ± 0.063
298.15 K, x2 = 0.2	838.49 ± 0.83	2.954 ± 0.063
298.15 K, x2 = 0.3	829.03 ± 0.83	2.935 ± 0.062
298.15 K, x2 = 0.4	819.83 ± 0.83	2.925 ± 0.062
298.15 K, x2 = 0.5	810.88 ± 0.83	2.923 ± 0.062
298.15 K, x2 = 0.6	802.18 ± 0.83	2.933 ± 0.062
298.15 K, x2 = 0.7	793.76 ± 0.83	2.952 ± 0.063
298.15 K, x2 = 0.7999	785.59 ± 0.83	2.98 ± 0.063
298.15 K, x2 = 0.9	777.65 ± 0.83	3.024 ± 0.064
303.15 K, x2 = 0	854.3 ± 0.83	2.704 ± 0.057
303.15 K, x2 = 0.1	844.34 ± 0.83	2.673 ± 0.057
303.15 K, x2 = 0.2	834.69 ± 0.83	2.65 ± 0.056
303.15 K, x2 = 0.3	825.27 ± 0.83	2.632 ± 0.056
303.15 K, x2 = 0.4	816.11 ± 0.83	2.624 ± 0.056
303.15 K, x2 = 0.5	807.21 ± 0.83	2.623 ± 0.056
303.15 K, x2 = 0.6	798.55 ± 0.83	2.629 ± 0.056
303.15 K, x2 = 0.7	790.18 ± 0.83	2.645 ± 0.056
303.15 K, x2 = 0.7999	782.04 ± 0.83	2.668 ± 0.057
303.15 K, x2 = 0.9	774.14 ± 0.83	2.706 ± 0.058
308.15 K, x2 = 0	850.4 ± 0.83	2.439 ± 0.052
308.15 K, x2 = 0.1	840.49 ± 0.83	2.412 ± 0.051
308.15 K, x2 = 0.2	830.88 ± 0.83	2.392 ± 0.051
308.15 K, x2 = 0.3	821.51 ± 0.83	2.377 ± 0.051
308.15 K, x2 = 0.4	812.4 ± 0.83	2.368 ± 0.05
308.15 K, x2 = 0.5	803.54 ± 0.83	2.367 ± 0.05
308.15 K, x2 = 0.6	794.93 ± 0.83	2.372 ± 0.05
308.15 K, x2 = 0.7	786.59 ± 0.83	2.384 ± 0.051
308.15 K, x2 = 0.7999	778.5 ± 0.83	2.403 ± 0.051
308.15 K, x2 = 0.9	770.64 ± 0.83	2.433 ± 0.052
313.15 K, x2 = 0	846.5 ± 0.83	2.213 ± 0.047
313.15 K, x2 = 0.1	836.63 ± 0.83	2.188 ± 0.047
313.15 K, x2 = 0.2	827.07 ± 0.83	2.169 ± 0.046
313.15 K, x2 = 0.3	817.75 ± 0.83	2.155 ± 0.046
313.15 K, x2 = 0.4	808.68 ± 0.83	2.149 ± 0.046
313.15 K, x2 = 0.5	799.87 ± 0.83	2.146 ± 0.046
313.15 K, x2 = 0.6	791.3 ± 0.83	2.15 ± 0.046
313.15 K, x2 = 0.7	783.01 ± 0.83	2.16 ± 0.046
313.15 K, x2 = 0.7999	774.96 ± 0.83	2.179 ± 0.046
313.15 K, x2 = 0.9	767.14 ± 0.83	2.203 ± 0.047
318.15 K, x2 = 0	842.6 ± 0.83	2.016 ± 0.043
318.15 K, x2 = 0.1	832.77 ± 0.83	1.996 ± 0.042
318.15 K, x2 = 0.2	823.26 ± 0.83	1.978 ± 0.042
318.15 K, x2 = 0.3	813.99 ± 0.83	1.966 ± 0.042
318.15 K, x2 = 0.4	804.97 ± 0.83	1.959 ± 0.042
318.15 K, x2 = 0.5	796.19 ± 0.83	1.957 ± 0.042
318.15 K, x2 = 0.6	787.68 ± 0.83	1.959 ± 0.042
318.15 K, x2 = 0.7	779.43 ± 0.83	1.967 ± 0.042
318.15 K, x2 = 0.7999	771.42 ± 0.83	1.981 ± 0.042
318.15 K, x2 = 0.9	763.64 ± 0.83	2.003 ± 0.043
323.15 K, x2 = 0	838.7 ± 0.83	1.846 ± 0.039
323.15 K, x2 = 0.1	828.91 ± 0.83	1.832 ± 0.039
323.15 K, x2 = 0.2	819.45 ± 0.83	1.813 ± 0.039
323.15 K, x2 = 0.3	810.22 ± 0.83	1.801 ± 0.038
323.15 K, x2 = 0.4	801.25 ± 0.83	1.795 ± 0.038
323.15 K, x2 = 0.5	792.52 ± 0.83	1.793 ± 0.038
323.15 K, x2 = 0.6	784.05 ± 0.83	1.795 ± 0.038
323.15 K, x2 = 0.7	775.84 ± 0.83	1.8 ± 0.038
323.15 K, x2 = 0.7999	767.88 ± 0.83	1.813 ± 0.039
323.15 K, x2 = 0.9	760.14 ± 0.83	1.833 ± 0.039

From the NIST ThermoML archive (doi:10.1016/j.jct.2016.01.021)
